Results taken from US12358931B2, “3-((1R,3s,5S)-3-((7-((5-methyl-1H-pyrazol-3-yl)amino)-1,6-naphthyridin-5-yl)amino)-8-azabicyclo[3.2.1]octan-8-yl) propanenitrile as a JAK kinase inhibitor” (priority 2015, dated 2025).

Columns and labels:
[1] = Solid state stability assessment; type: physicochemical; set-up: unit not given here
From the text: At specific intervals, the contents of a representative sample was removed and analyzed by HPLC for chemical purity and by Karl Fischer for water content.

[2] = Description: A weighed sample was used and the humidity was lowest possible value (close to 0% RH) at the start of the analysis. The DMS analysis consisted of an initial drying step (0% RH) for 120 minutes, followed by two cycles of sorption and desorption with a scan rate of 5% RH/step over the humidity range of 5% RH to 90% RH. The DMS run was performed isothermally at 25° C.
[3] = Pharmacokinetics in plasma and the GI tract in rats; type: in vivo, Sprague Dawley rats; conditions: oral dosing in preclinical species
Description: A test compound was dosed to male Sprague Dawley rats (n=3) as described in Assay 5. […] At all time points, the plasma concentration was below the limit of quantitation of 0.001 μg/mL.

[4] = First in human study of safety, tolerability and pharmacokinetics in healthy subjects; type: in vivo; conditions: suggested by comparison with other orally administered compounds
Description: The compound of Example 1 was evaluated in a double-blinded, randomized, placebo-controlled, single ascending dose (SAD) and multiple ascending dose (MAD) study of safety, tolerability, and pharmacokinetics in healthy subjects. Pharmacokinetic samples were collected up to 72 hours post the final dose in both the SAD study (after the first dose) and MAD study (after 14 days of once-daily dosing). The SAD study enrolled 5 cohorts and the MAD study enrolled 4 cohorts totaling 72 subjects, of which 71 completed the dosing period.
Plasma pharmacokinetic (PK) parameters were determined by non-compartmental analysis using WinNonLin Version 6.4.0 (Pharsight, St Louis, MO). The plasma PK parameter presented here is: • Cmax: maximum concentration in plasma

[5] = test system: mouse splenic NK, B and T cells; assay: Immunosuppression effects in mouse splenic natural killer (NK) cells; type: in vivo, Balb/C mice; conditions: for B and T cell populations: mouse spleen; for B and T cell populations / splenic NK cell counts: PO BID three days; for splenic NK cell counts: Example 1 up to 100 mg/kg, tofacitinib 30 mg/kg
Description: Depletion of mouse splenic cells is an experimental model of immunosuppression (Kudlacz et al., Am. J. of Transplantation, 2004, 4, 51-57). […] Adult male Balb/C mice (12-14 weeks of age) from Harlan were used for the study. […] Spleens were harvested 1 or 2 h post last dose and crushed immediately for cell subtype staining. Prior to fixation, fluorophore-labelled antibodies for CD19 (FITC; B cells), CD3e (PE; pan T cells) and DX5 (APC; NK cells) were incubated with splenocyte samples from each animal to allow for simultaneous, multiple subtype % analysis on the flow cytometer. The number of total spleen cells for each animal was measured by Scepter™ 2.0 Handheld Automated Cell Counter. The absolute number of lymphocyte subtype population (e.g., splenic B, T and NK cells) was calculated from the percentage of each subtype times total spleen cells for each animal. A one way ANOVA, with Dunnett's post hoc test, was used to compare the splenic lymphocytes number of the vehicle and test compound groups. The a level was set at p<0.05. Data were presented as the mean±SEM for each group.

[6] = test system: oxazolone-induced colitis; assay: Mouse model of oxazolone-induced colitis; type: in vivo, BALB/C mice; conditions: PO, 1, 3, and/or 10 mg/kg BID
Description: Oxazolone-induced colitis is an experimental model that has a histological resemblance to human ulcerative colitis (Heller et al. […], 2002, 17, 629-638). Adult BALB/C mice from Harlan were used in the assay. On day 1, animals were lightly anesthetized with isoflurane and the hairs between the shoulder were carefully removed before oxazolone (4%, 150 μL, 4:1 acetone: olive oil formulation) or vehicle solution was slowly applied for skin sensitization. Seven days after skin sensitization, the mice were fasted overnight, anesthetized with isoflurane inhalation, and a 1 mL syringe equipped with a 3.5-F catheter, filled with oxazolone solution, was inserted carefully about 4 cm into the colon of the mouse. Following insertion, 50 μL of the oxazolone solution (1%, 1:1 ethanol:water formulation) was injected very slowly (over 30 sec using an injection pump) into the colon. […] Two-day post oxazolone intrarectal challenge, the Disease Activity Index (DAI) was assessed by treatment-blinded experimenters for each mouse according to the criteria score: stool consistency score (0, normal; 2, loose; 4, diarrhea), gross bleeding score (0, absence; 2, blood tinged; 4, presence), and weight loss score (0, none; 1, 1%-5%; 2, 5%-10%; 3, 10%-20%; 4, more than 20%); DAI=average of (stool consistency score+gross bleeding score+weight loss score). […]

Structure (SMILES) | RRT 0.96 ([1]; HPLC peak at RRT 0.96, T = 0) | RRT 0.96 ([1]; HPLC peak at RRT 0.96, T = 1 Month, 40° C./75% RH) | RRT 0.96 ([1]; HPLC peak at RRT 0.96, T = 3 Month, 25° C./60% RH) | RRT 0.96 ([1]; HPLC peak at RRT 0.96, T = 3 Month, 40° C./75% RH) | RRT 1.84 ([1]; HPLC peak at RRT 1.84, T = 0) | RRT 1.84 ([1]; HPLC peak at RRT 1.84, T = 1 Month, 40° C./75% RH) | RRT 1.84 ([1]; HPLC peak at RRT 1.84, T = 3 Month, 25° C./60% RH) | RRT 1.84 ([1]; HPLC peak at RRT 1.84, T = 3 Month, 40° C./75% RH) | weight change (gain) on moisture sorption ([2]; 5% to 90% relative humidity, room temperature, listed as Crystalline 3-(1R,3s,5S)-3-((7-((5-methyl-1H-pyrazol-3-yl)amino)-1,6-naphthyrid))) | hygroscopicity ([2]; two cycles of sorption and desorption) | exposure throughout the gastrointestinal tract versus plasma [3] | oral bioavailability [4] | B and T cell populations [5] | splenic NK cell counts ([5]; mouse) | effect of immunosuppression ([5]; mouse, same dose required for efficacy in the oxazolone model) | decrease in DAI score as compared with vehicle treated animals [6]
Cc1cc(Nc2cc3ncccc3c(N[C@@H]3C[C@H]4CC[C@@H](C3)N4CCC#N)n2)n[nH]1 [Form I, 3-((1R,3s,5S)-3-((7-((5-methyl-1H-pyrazol-3-yl)amino)-1,6-naphthyridin-5-yl)amino)-8-azabicyclo[3.2.1]octan-8-yl)propanenitrile] | 0.07 | 0.07 | 0.07 | 0.07 | 0.08 | 0.08 | 0.05 | 0.05 | less than 0.15% | non-hygroscopic |  |  |  |  |  | 
Cc1cc(Nc2cc3ncccc3c(N[C@@H]3C[C@H]4CC[C@@H](C3)N4CCC#N)n2)n[nH]1 [Example 1, 3-((1R,3s,5S)-3-((7-((5-methyl-1H-pyrazol-3-yl)amino)-1,6-naphthyridin-5-yl)amino)-8-azabicyclo[3.2.1]octan-8-yl)propanenitrile] |  |  |  |  |  |  |  |  |  |  | significantly higher exposure | very low | No treatment effect | unaffected | minimal effect | demonstrated activity
C[C@@H]1CCN(C(=O)CC#N)C[C@@H]1N(C)c1ncnc2[nH]ccc12 [tofacitinib, reference compound] |  |  |  |  |  |  |  |  |  |  |  |  | No treatment effect | dose-dependently and significantly decreased |  | 
